Experimental data: US20170007615A1, “Antibacterial Compounds” (priority 2014, published 2017)
≈ marks a conversion by molar mass, not a printed value. Like-named read-outs stand apart in the source and are kept apart here. Positions of bridges follow the written chain, without caps; N, C: chain ends. Non-standard residues stand in square brackets, D forms with d. Residues, ends and D or L forms follow the SMILES beside them. *: point of attachment. Ileψ(thiazoline)Cys = CC[C@H](C)[C@H](N)C1=N[C@H](C(=O)*)CS1; dOrn = NCCC[C@@H](N)C(=O)O

What was measured:
[1] = test system: E. coli (ATCC 25922); details: for MIC of Compound (μg/ml) in the presence of PMBN (32 μg/ml): (b) No significant effect; for MIC of Compound (μg/ml) in the presence of PMBN (128 μg/ml): Table 1, (b) No effect
[2] = test system: E. coli (ATCC 25922); assay: microbe, parasite or virus in culture; details: Escherichia coli
[3] = ATCC25922, read-out: MIC Compound alone, Table 12
[4] = ATCC25922, read-out: MIC Compound alone, Table 1

Molecule | MIC of Compound (μg/ml) in the presence of PMBN (32 μg/ml) ([1]; Table 12) | MIC [2, 3] [µg/mL] | MIC of Compound (μg/ml) in the presence of PMBN (128 μg/ml) [1] | MIC [2, 4] [µg/mL] | also measured
C[C@@H](O)[C@H]1C(=O)N2C(C(=O)O)=C(S[C@@H]3CN[C@H](C(=O)N(C)C)C3)[C@H](C)[C@H]12 [Meropenem, reference compound] | 0.5^(b) μg/ml | 0.5 (≈ 1.3 µM) |  |  | 
C[C@@H](O)[C@H]1C(=O)N2C(C(=O)O)=C(SCCN=CN)C[C@H]12 [Imipenem, reference compound] | 0.5^(b) μg/ml | 0.5 (≈ 1.67 µM) |  |  | 
C=CCS(=O)(=O)Nc1ncc(-c2cc(-c3ccc(C)cn3)c3sc(NC(=O)NCC)nc3c2)cn1 [Compound A-17, 1-[5-[2-(allylsulfonylamino)pyrimidin-5-yl]-7-(5-methyl-2-pyridyl)-1,3-benzothiazol-2-yl]-3-ethyl-urea] |  |  | 0.03 µg/mL | 2 (≈ 3.92 µM) | 
COc1cc(Cc2cnc(N)nc2N)cc(OC)c1OC [Trimethoprim, reference compound] | 2^(b) μg/ml | 0.5 (≈ 1.72 µM) |  |  | 
Gentamicin [reference compound] | 8^(b) μg/ml |  |  |  | MIC Compound alone ([1]; Table 12): 8 µg/mL
CCNC(=O)Nc1nc2cc(-c3cnc(C(C)(O)CO)nc3)ccc2s1 (stereo not shown) [Compound A-7, 1-[5-[2-(1,2-Dihydroxy-1-methyl-ethyl)pyrimidin-5-yl]-1,3-benzothiazol-2-yl]-3-ethyl-urea] |  |  | 4 µg/mL | 32 (≈ 85.7 µM) | 
CC1(C)S[C@@H]2[C@H](NC(=O)[C@H](N)c3ccc(O)cc3)C(=O)N2[C@H]1C(=O)O [Amoxicillin, reference compound] | 8 µg/mL | 32 (≈ 87.6 µM) |  |  | 
CN(C)c1cc(NC(=O)CNC(C)(C)C)c(O)c2c1C[C@H]1C[C@H]3[C@H](N(C)C)C(O)=C(C(N)=O)C(=O)[C@@]3(O)C(O)=C1C2=O [Tigecyclin, reference compound] | ≦0.25^(b) μg/ml |  |  |  | MIC Compound alone ([1]; Table 12): ≦0.25 μg/ml
CCNC(=O)Nc1nc2cc(-c3cnc(NS(=O)(=O)C(C)(C)C)nc3)cc(-c3cnc(N(C)C)nc3)c2s1 [Compound A-18, 1-[5-[2-(tert-butylsulfonylamino)pyrimidin-5-yl]-7-[2-(dimethylamino)pyrimidin-5-yl]-1,3-benzothiazol-2-yl]-3-ethyl-urea] |  |  | 0.12 µg/mL | > 64 | 
CCNC(=O)Nc1nc2cc(-c3cccnc3)cc(-c3ncccc3N)c2s1 [Example 94 (WO2007/148093)] |  |  | 32 µg/mL | > 64 | 
CCNC(=O)Nc1nc2cc(-c3cnc(C(C)(C)O)nc3)cc(-c3cc(CN4CCOCC4)ccn3)c2s1 [Example 28 (WO2013/138860), 1-ethyl-3-[5-[2-(1-hydroxy-1-methyl-ethyl)pyrimidin-5-yl]-7-[4-(morpholinomethyl)-2-pyridyl]-1,3-benzothiazol-2-yl]urea] |  |  | 0.5 µg/mL | > 64 | 
CCNC(=O)Nc1nc2cc(-c3cnc(NC(=O)OC)nc3)cc(-c3ccccn3)c2s1 [Compound A-5, Methyl N-[5-[2-(ethylcarbamoylamino)-7-(2-pyridyl)-1,3-benzothiazol-5-yl]pyrimidin-2-yl]carbamate] |  |  | 0.008 µg/mL | > 64 | 
CCNC(=O)Nc1nc2cc(-c3cc(C)n(C(C)c4ccc(C)nc4)c(=O)c3)cc(-c3ccccn3)c2s1 (stereo not shown) [Compound A-4, 1-Ethyl-3-[5-[2-methyl-1-[1-(6-methyl-3-pyridyl)ethyl]-6-oxo-4-pyridyl]-7-(2-pyridyl)-1,3-benzothiazol-2-yl]urea] |  |  | 0.5 µg/mL | > 64 | 
CC1COc2c(N3CCN(C)CC3)c(F)cc3c(=O)c(C(=O)O)cn1c23 (stereo not shown) [Ofloxacin, reference compound] | 0.03^(b) μg/ml | 0.03 (≈ 0.083 µM) | 0.03^(b) μg/ml | 0.03 (≈ 0.083 µM) | effect of the presence of PMBN on activity compared to compound alone ([1]; Table 1 experiment): no effect
CCN1CCN(C(=O)N[C@@H](C(=O)N[C@@H]2C(=O)N3[C@@H]2SC(C)(C)[C@@H]3C(=O)O)c2ccccc2)C(=O)C1=O [Piperacillin, reference compound] | 0.25 µg/mL |  |  |  | MIC ([2]; ATCC25922, read-out: MIC Compound alone): 2 µg/mL (≈ 3.86 µM)
CCNC(=O)Nc1nc2cc(-c3cccnc3)cc(-c3ccccn3)c2s1 [Example 163 (WO2007/148093)] |  |  | 0.25 µg/mL | > 64 | 

Molecule | MIC of Compound (μg/ml) in the presence of PMBN (32 μg/ml) ([1]; Table 12) | MIC [2, 3] [µg/mL] | MIC of Compound (μg/ml) in the presence of PMBN (128 μg/ml) [1] | MIC [2, 4] [µg/mL] | also measured
CCn1cc(C(=O)O)c(=O)c2cc(F)c(N3CCNCC3)nc21 [Enoxacin, reference compound] | 0.03^(b) μg/ml | 0.06 (≈ 0.187 µM) |  |  | 
Polymyxin B [PMB, reference compound] |  |  |  |  | MIC PMB alone ([1]; Table 3): 1 µg/mL
CNc1cc(F)cc2c1[nH]c1nc(Oc3ccc(C)nc3)nc(N3CCCC3)c12 [Compound A-23, 6-Fluoro-N-methyl-2-[(6-methyl-3-pyridyl)oxy]-4-pyrrolidin-1-yl-9H-pyrimido[4,5-b]indol-8-amine, reference compound] |  |  | 0.06 µg/mL | 1 (≈ 2.55 µM) | 
O=C(N[C@H](CO)[C@H](O)c1ccc([N+](=O)[O-])cc1)C(Cl)Cl [Chloramphenicol, reference compound] | 1 µg/mL | 4 (≈ 12.4 µM) |  |  | 
C[C@H]1COc2c(N3CCN(C)CC3)c(F)cc3c(=O)c(C(=O)O)cn1c23 [Levofloxacin, reference compound] | 0.008^(b) μg/ml | 0.008 (≈ 0.0221 µM) |  |  | 
CCNC(=O)Nc1nc2cc(-c3cnc(NS(=O)(=O)CC(=O)OC)nc3)cc(-c3ccc(C)cn3)c2s1 [Compound A-16, Methyl 2-[[5-[2-(ethylcarbamoylamino)-7-(5-methyl-2-pyridyl)-1,3-benzothiazol-5-yl]pyrimidin-2-yl]sulfamoyl]acetate] |  |  | 0.25 µg/mL | > 64 | 
CCNC(=O)Nc1nc2cc(-c3cccnc3)cc(C(=O)OC)c2[nH]1 [Compound A-22, Methyl 2-(ethylcarbamoylamino)-6-(3-pyridyl)-3H-benzimidazole-4-carboxylate, reference compound] |  |  | 0.5 µg/mL | 8 (≈ 23.6 µM) | 
CCNC(=O)Nc1nc2cc(-c3cnc(NC(=O)N4CCCC4)nc3)cc(-c3cc(CN4CCOCC4)ccn3)c2s1 [Compound A-6, N-[5-[2-(Ethylcarbamoylamino)-7-[4-(morpholinomethyl)-2-pyridyl]-1,3-benzothiazol-5-yl]pyrimidin-2-yl]pyrrolidine-1-carboxamide] |  |  | 0.25 µg/mL | > 64 | 
CC(C)(C)S(=O)(=O)Nc1ncc(-c2cc(Br)c3sc(N)nc3c2)cn1 [Compound A-102, N-[5-(2-amino-7-bromo-1,3-benzothiazol-5-yl)pyrimidin-2-yl]-2-methyl-propane-2-sulfonamide] |  |  | 2 µg/mL | > 64 | 
CCNC(=O)Nc1nc2cc(-n3cnc(C)c3)cc(-c3ccccn3)c2s1 [Compound A-3, 1-Ethyl-3-[5-(4-methylimidazol-1-yl)-7-(2-pyridyl)-1,3-benzothiazol-2-yl]urea] |  |  | <=1 μg/ml | > 64 | MIC of Compound (μg/ml) in the presence of Colistin (1 μg/ml) ([1]; Table 2, colistin sub-inhibitory): ≦1 μg/ml; MIC of Compound (μg/ml) in the presence of PMB (0.5 μg/ml) ([1]; Table 3, PMB sub-inhibitory): ≦1 μg/ml; MIC ([2]; ATCC25922, read-out: MIC Compound alone, Table 2): > 64 µg/mL; MIC ([2]; ATCC25922, read-out: MIC Compound alone, Table 3): > 64 µg/mL
CO/N=C(\C(=O)N[C@@H]1C(=O)N2C(C(=O)O)=C(CSc3nc(=O)c(=O)[nH]n3C)CS[C@H]12)c1csc(N)n1 [Ceftriaxone, reference compound] | 0.06^(b) μg/ml | 0.06 (≈ 0.108 µM) |  |  | 
CCNC(=O)Nc1nc2cc(-c3cnc(NC(=O)N4CC[C@@H](O)C4)nc3)cc(-c3ccc(C)cn3)c2s1 [Compound A-1, (3R)—N-[5-[2-(Ethylcarbamoylamino)-7-(5-methyl-2-pyridyl)-1,3-benzothiazol-5-yl]pyrimidin-2-yl]-3-hydroxy-pyrrolidine-1-carboxamide] |  |  | 0.12 µg/mL | > 64 | 
CCNC(=O)Nc1nc2cc(-c3cnc(C(C)(O)CO)nc3)cc(C)c2s1 (stereo not shown) [Compound A-9, 1-[5-[2-(1,2-Dihydroxy-1-methyl-ethyl)pyrimidin-5-yl]-7-methyl-1,3-benzothiazol-2-yl]-3-ethyl-urea] |  |  | 2 µg/mL | 32 (≈ 82.6 µM) | 
CC1(C)S[C@@H]2[C@H](NC(=O)C(C(=O)O)c3ccccc3)C(=O)N2[C@H]1C(=O)O (stereo partly shown) [Carbenicillin, reference compound] | 32^(b) μg/ml | 64 (≈ 169 µM) |  |  | 
CC[C@H](C)[C@H](N)C1=N[C@H](C(=O)N[C@@H](CC(C)C)C(=O)N[C@H](CCC(=O)O)C(=O)N[C@H](C(=O)N[C@H]2CCCCNC(=O)[C@H](CC(N)=O)NC(=O)[C@@H](CC(=O)O)NC(=O)[C@H](Cc3cnc[nH]3)NC(=O)[C@@H](Cc3ccccc3)NC(=O)[C@H]([C@@H](C)CC)NC(=O)[C@@H](CCCN)NC2=O)[C@@H](C)CC)CS1 [Bacitracin, reference compound] ({Ileψ(thiazoline)Cys}-L[dE]IK[dOrn]I[dF]H[dD]N; lactam 4-C) | >64^(b) μg/ml |  |  |  | MIC Compound alone ([1]; ATCC 25922): >64 µg/mL
CCNC(=O)Nc1nc2cc(-c3cnc(N4CCC(C)(C(=O)O)CC4)nc3)cc(-c3ccccn3)c2s1 [Example 1 (WO2012/045124), 1-[5-[2-(ethylcarbamoylamino)-7-(2-pyridyl)-1,3-benzothiazol-5-yl]pyrimidin-2-yl]-4-methyl-piperidine-4-carboxylic acid] |  |  | 0.5 µg/mL | > 64 | 
